The source made the active and inactive calls. No rule for the calls is given here.
How the values were obtained:
[1] = tested on: VeroE6 cell viability, cytotoxicity CC50; experiment: viability of VeroE6 cells – cytotoxicity control for flavivirus guanylyltransferase probe project, dose response (AID 623864)
[2] = as above; conditions: VeroE6 cell viability, cytotoxicity CC50; at 50 µM (top of the series)

| Compound | CC50 [1] | viability [2] |
| --- | --- | --- |
| O=C(O)CSc1cc(NS(=O)(=O)c2cccc([N+](=O)[O-])c2)c2ccccc2c1O | 30.9 µM |  |
| COc1ccc(OC)c(S(=O)(=O)Nc2cc(SCC(=O)O)c(O)c3ccccc23)c1 | 29.7 µM |  |
| O=[N+]([O-])c1cccc(S(=O)(=O)Nc2cc(Sc3nc4ccccc4s3)c(O)c3ccccc23)c1 | 7.37 µM |  |
| O=S(=O)(Nc1cc(SCc2ccccc2)c(O)c2ccccc12)c1ccc(Cl)cc1 | 32.3 µM |  |
| O=C(O)CSc1cc(NS(=O)(=O)c2ccc(Br)cc2)c2ccccc2c1O | 21.6 µM |  |
| Cn1c(=O)c2[nH]c(-c3ccc(Cl)cc3)c(O)c2n(C)c1=O |  | 72.3% (inactive) |
| O=S(=O)(Nc1cc(Cl)c(O)c2ccccc12)c1ccc(F)cc1 | 29.4 µM |  |
| O=C(O)CSc1cc(NS(=O)(=O)c2cccc3cccnc23)c2ccccc2c1O | 19.2 µM |  |
| O=[N+]([O-])c1cccc(S(=O)(=O)Nc2cc(SCc3ccccc3)c(O)c3ccccc23)c1 | 14.4 µM |  |
| Cc1ccc(S(=O)(=O)Nc2cc(SCC(=O)O)c(O)c3ccccc23)cc1 | 27.6 µM |  |
| O=S(=O)(Nc1cc(Sc2ncn[nH]2)c(O)c2ccccc12)c1ccc(F)cc1 | 31.7 µM |  |
| O=C(O)CSc1cc(NS(=O)(=O)c2ccc(F)cc2)c2ccccc2c1O | 20 µM |  |
| Cc1cc(F)ccc1S(=O)(=O)Nc1cc(SCC(=O)O)c(O)c2ccccc12 | 21.6 µM |  |
| Cc1ccc(S(=O)(=O)Nc2cc(Sc3nc(C)cc(C)n3)c(O)c3ccccc23)cc1 | 12.8 µM |  |
| Cc1cc(C)c(S(=O)(=O)Nc2cc(SCC(=O)O)c(O)c3ccccc23)c(C)c1 | 12.6 µM |  |
| O=C(O)CSc1cc(NS(=O)(=O)c2ccc(Cl)cc2)c2ccccc2c1O | 30.8 µM |  |

From PubChem BioAssay AID623864 (Southern Research Specialized Biocontainment Screening …, 2012)
